Experimental data from US4500516A, “Antibacterial pharmaceutical composition” (priority 1982, dated 1985).
Where a name gives a salt, the structure may show the parent alone. Read-outs that look alike come from different tables or passages of the source.

Assays:
[1] = cited from earlier work
[2] = rabbit, in vivo, po, 5 mg/kg, cited from earlier work; for total quantity removed, of the total quantity administered: 2880 min
[3] = cited from earlier work; remark: listed apart in the source
[4] = system: infectious inflammatory diseases; settings: prior-art drugs; cited from earlier work
[5] = cited from earlier work; remark: listed apart in the source
[6] = cited from earlier work; remark: listed apart in the source
in vivo [7] = settings: rabbit, urine, 50 mg/kg
white mice = settings: cited from earlier work
[8] = prior-art drugs; cited from earlier work
[9] = system: pathogenic microorganisms; settings: cited from earlier work
in vivo [10] = settings: rabbit, blood
Bac. coil = test: bacteriostatic concentration; format: cell-based
[11] = system: Staphylococcus aureus haemolyticus; test: bacteriostatic concentration; format: cell-based
Bac. mycoides = test: microbe, parasite or virus in culture; format: cell-based; settings: Bacillus mycoides, read-out: bacteriostatic concentration
[12] = rabbit, in vivo, 50 mg/kg

O=C1CN(N=CC=Cc2ccc([N+](=O)[O-])o2)C(=O)N1 [Furagin, N-[β-(5'-nitrofuryl-2')-acrylidene]-1-aminohydantoin]
solubility in water [1]: very poorly soluble in water | total quantity removed, of the total quantity administered [2]: 2.75±0.41% | concentrations in the urine, Furagin versus Solafur [2]: roughly equal | intolerance ([3]; in vivo): in quite a number of cases, said pharmaceutical composition is observed to meet with intolerance | spectrum of action [4]: wider spectrum of therapeutic action than the aforesaid Nitrofurantoin and Furadantin | pK [5]: 6

O=C1CN(N=Cc2ccc([N+](=O)[O-])o2)C(=O)N1 [Nitrofurantoin, 1-(5'-nitrofurfurylideneamino)-hydantoin]
removal from the organism ([6]; in vivo): quickly removed from the organism | absorption from the gastrointestinal tract ([6]; oral): quickly absorbable from the gastrointestinal tract | drug concentration in the blood and in the urine ([6]; oral): capable of reaching a level sufficient to produce a therapeutic effect | intolerance ([3]; medical practice): Sometimes this pharmaceutical composition is observed to meet with intolerance | spectrum of action [4]: relatively limited spectrum of action | Cmax (in vivo [7]): 610 µg/mL | Tmax (in vivo [7]): 1 h | LD50 (white mice; white mice, oral administration): 166.7 mg/kg | toxicity [8]: noticeably toxic | bacteriostatic concentration value ([9]; in words): comparatively high

O=C1CN(N=CC=Cc2ccc([N+](=O)[O-])o2)C(=O)N1 [Solafur, potassium salt of N-[β-(5'-nitrofuryl-2')-acrylidene]-1-aminohydantoin]
concentration at 0.25 h (in vivo [10]): 2.8 µg/mL | MIC (Bac. coil): 2.5 µg/mL | solubility in water [1]: higher than that of the aforementioned Furagin | total quantity removed, of the total quantity administered [2]: 2.83±0.48% | concentrations in the urine, Furagin versus Solafur [2]: roughly equal | side effects on faster administration ([3]; in vivo, iv): headache and nausea | intolerance ([3]; in vivo): in some cases this pharmaceutical composition is observed to meet with intolerance | spectrum of action [4]: broader spectrum of action compared to Furagin | LD50 (white mice; mouse, in vivo, po): 390 mg/kg | MIC [11]: 2.5 µg/mL | synergistic action with antibiotics ([9]; a range of antibiotics, most pathogenic microorganisms): capability of producing synergistic action with a range of antibiotics upon most pathogenic microorganisms | MIC (Bac. mycoides): 2.5 µg/mL | total excretion of Solafur with urine [12]: 3.43 ± 0.3 mg
